Source: patent US20090306052A1, “INDENYL DERIVATIVES AND USE THEREOF FOR THE TREATMENT OF NEUROLOGICAL DISORDERS” (Glaxo Group Limited, priority 2004, published 2009)

The compounds below were run against T1, histamine H3 receptor (Homo sapiens, UniProt Q9Y5N1) (assay: Histamine H3 functional antagonist assay ([35S]-GTPγS SPA, membranes from cultured H3 cells)). Conditions: hydrochloride salts tested; averages of a number of experiments; membrane prepared from cultured H3 cells; read-out: functional pKi (fpKi), histamine H3 functional antagonist assay (converted).
T1 construct: expressed in transfected cells; host or cells: CHO K1 cells carrying the pSwitch regulatory plasmid, transfected with pGeneH3 and induced with mifepristone; clone 3H3; membrane preparation
T1 sequence (Q9Y5N1 whole entry): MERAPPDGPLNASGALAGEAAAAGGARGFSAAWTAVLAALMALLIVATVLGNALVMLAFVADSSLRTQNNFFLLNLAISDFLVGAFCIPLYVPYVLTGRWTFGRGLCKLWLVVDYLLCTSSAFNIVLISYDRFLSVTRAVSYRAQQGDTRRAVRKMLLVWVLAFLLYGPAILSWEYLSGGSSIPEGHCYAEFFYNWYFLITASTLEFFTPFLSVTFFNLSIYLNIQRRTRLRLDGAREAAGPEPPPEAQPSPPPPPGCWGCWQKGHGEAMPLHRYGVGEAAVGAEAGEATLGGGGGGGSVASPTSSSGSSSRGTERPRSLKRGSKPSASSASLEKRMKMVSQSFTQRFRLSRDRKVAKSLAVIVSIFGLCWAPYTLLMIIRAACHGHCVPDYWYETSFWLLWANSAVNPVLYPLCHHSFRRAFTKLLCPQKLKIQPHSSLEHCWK
Assay type: biochemical
Source text: A membrane preparation containing histamine H3 receptors may be prepared in accordance with the following procedures:
DNA encoding the human histamine H3 gene (Huvar, A. et al. (1999) Mol. Pharmacol. 55(6), 1101-1107) was cloned into a holding vector, pcDNA3.1 TOPO (InVitrogen) and its cDNA was isolated from this vector by restriction digestion of plasmid DNA with the enzymes BamH1 and Not-1 and ligated into the inducible expression vector pGene (InVitrogen) digested with the same enzymes. The GeneSwitch™ system (a system where in transgene expression is switched off in the absence of an inducer and switched on in the presence of an inducer) was performed as described in U.S. Pat. Nos. 5,364,791; 5,874,534; and 5,935,934. Ligated DNA was transformed into competent DH5α E. coli host bacterial cells and plated onto Luria Broth (LB) agar containing Zeocin™ (an antibiotic which allows the selection of cells expressing the sh ble gene which is present on pGene and pSwitch) at 50 μg ml^−1. Colonies containing the re-ligated plasmid were identified by restriction analysis. DNA for transfection into mammalian cells was prepared from 250 ml cultures of the host bacterium containing the pGeneH3 plasmid and isolated using a DNA preparation kit (Qiagen Midi-Prep) as per manufacturers guidelines (Qiagen).
CHO K1 cells previously transfected with the pSwitch regulatory plasmid (InVitrogen) were seeded at 2×10e6 cells per T75 flask in Complete Medium, containing Hams F12 (GIBCOBRL, Life Technologies) medium supplemented with 10% v/v dialysed foetal bovine serum, L-glutamine, and hygromycin (100 μg ml^−1), 24 hours prior to use. Plasmid DNA was transfected into the cells using Lipofectamine plus according to the manufacturers guidelines (InVitrogen). 48 hours post transfection cells were placed into complete medium supplemented with 500 μg ml^−1 Zeocin™.
10-14 days post selection 10 nM Mifepristone (InVitrogen), was added to the culture medium to induce the expression of the receptor. 18 hours post induction cells were detached from the flask using ethylenediamine tetra-acetic acid (EDTA; 1:5000; InVitrogen), following several washes with phosphate buffered saline pH 7.4 and resuspended in Sorting Medium containing Minimum Essential Medium (MEM), without phenol red, and supplemented with Earles salts and 3% Foetal Clone II (Hyclone). Approximately 1×10e7 cells were examined for receptor expression by staining with a rabbit polyclonal antibody, 4a, raised against the N-terminal domain of the histamine H3 receptor, incubated on ice for 60 minutes, followed by two washes in sorting medium. Receptor bound antibody was detected by incubation of the cells for 60 minutes on ice with a goat anti rabbit antibody, conjugated with Alexa 488 fluorescence marker (Molecular Probes). Following two further washes with Sorting Medium, cells were filtered through a 50 μm Filcon™ (BD Biosciences) and then analysed on a FACS Vantage SE Flow Cytometer fitted with an Automatic Cell Deposition Unit. Control cells were non-induced cells treated in a similar manner. Positively stained cells were sorted as single cells into 96-well plates, containing Complete Medium containing 500 μg ml^−1 Zeocin™ and allowed to expand before reanalysis for receptor expression via antibody and ligand binding studies. One clone, 3H3, was selected for membrane preparation.
All steps of the protocol are carried out at 4° C. and with pre-cooled reagents. […]

SMILES	Ki [nM]
O=C1CCCN1c1ccc(Oc2ccc3c(c2)CC(N2CCCC2)C3)nc1 (racemic) [Example 3, 1-(6-{[2-(1-Pyrrolidinyl)-2,3-dihydro-1H-inden-5-yl]oxy}-3-pyridinyl)-2-pyrrolidinone]	< 1
O=C1CCCN1c1ccc(Oc2ccc3c(c2)CC(N2CCCC2)C3)nc1 (single isomer, unassigned; enantiomer 1) [Example 4, (−)-Enantiomer 1-(6-{[2-(1-Pyrrolidinyl)-2,3-dihydro-1H-inden-5-yl]oxy}-3-pyridinyl)-2-pyrrolidinone]	< 1
C[C@H]1CCCN1C1Cc2ccc(Oc3ccc(N4CCCC4=O)cn3)cc2C1 (stereo partly drawn) [Example 20, 1-[6-({2-[(2S)-2-Methyl-1-pyrrolidinyl]-2,3-dihydro-1H-inden-5-yl}oxy)-3-pyridinyl]-2-pyrrolidinone]	< 1

The next lines start with the values.

Ki [nM]	SMILES
< 1	CNC(=O)c1ccc(Oc2ccc3c(c2)CC(N2CCCC2)C3)nc1 (single isomer, unassigned; (-)) [Example 22, (−)-Enantiomer N-methyl-6-{[2-(1-pyrrolidinyl)-2,3-dihydro-1H-inden-5-yl]oxy}-3-pyridinecarboxamide]
< 1	O=C(c1ccc(Oc2ccc3c(c2)CC(N2CCCC2)C3)nc1)N1CCCC1 (centres unmarked) [Example 12, 5-(1-Pyrrolidinylcarbonyl)-2-{[2-(1-pyrrolidinyl)-2,3-dihydro-1H-inden-5-yl]oxy}pyridine]
